Values of other authors as cited in paper PMC12138161, “Structure–activity analysis of imino‐pyrimidinone‐fused pyrrolidines aids the development of dual plasmepsin V and plasmepsin X inhibitors” (The Febs Journal, 2025).
Like-named read-outs stand apart in the source and are kept apart here.

Columns and labels:
PMIX = conditions: cited from earlier work
[1] = tested on: 3D7 strain of Plasmodium falciparum; conditions: blood stage growth, read-out: Pf 3D7 EC50; cited from earlier work
PMX = conditions: cited from earlier work
PMV = conditions: cited from earlier work

Row | SMILES | IC50 (PMIX) | EC50 [1] | IC50 (PMX) | IC50 (PMV) | IC50 (PMV; stated in text with reference to Fig. 1)
1 | CC(C)C[C@H](NC(=O)[C@@H](NC(=O)[C@H](CCONC(=N)N)NC(=O)OCc1ccccc1)C1CCCCC1)[C@@H](O)CC(=O)NCCc1ccccc1 [WEHI-601 (2)] | > 50000 nM | 90 nM | 330 nM | 5 nM | < 20 nM
2 | C[C@@H](NC[C@@H](O)[C@H](Cc1ccccc1)NC(=O)c1ccc(C(=O)N2CCN(C)CC2)cc1)c1ccccc1 [49c (3)] | 650 nM | 0.6 nM | 1.4 nM | > 1000 nM | –
